Test results reported in US20240261429A1, “CPMV BINDING PEPTIDE” (The Regents of the University of California, priority 2021, published 2024).
Primed or numbered codes have the meaning given here. Ends that are not written are not given here. Peptide text beside a SMILES is read from it. * marks the point of attachment. FITC = O=C1OC2(c3ccc(O)cc3Oc3cc(O)ccc32)c2ccc(NC(=S)*)cc21; Biotin = O=C1N[C@H]2[C@H](CS[C@H]2CCCCC(=O)*)N1; FITC′ = fluorescein isothiocyanate

What was measured:
CPMV [1] = assay: Native agarose gel electrophoresis of FITC peptides with CPMV; assay type: binding, Cowpea mosaic virus; details: 1.2% agarose gel after dual-purification
Experimental: 10 μg of FITC peptide conjugated CPMV was loaded onto a 1.2% (w/v) TAE agarose gel. 10 μg of CPMV and 1 μg of free CPMV-FITC peptide was loaded as control. The samples were electrophoresed at 110 V for 40 min.
The dual functional CBP-AHNP peptide was synthesized by fusing AHNP to the C-terminus of the CBP domain. A control peptide (*AHNP) without the CBP domain was also synthesized; both peptides were modified with a FITC label at their C terminus. CPMV-CBP-AHNP and controls were characterized by native agarose gel electrophoresis as described above.

CPMV [2] = assay: Competitive ELISA between synthetic CBP peptides and monoclonal phage MPSEF; assay type: binding, Cowpea mosaic virus; details: for Kd: competition binding ELISA against MPSEF, read-out: dissociation constant KD
Experimental: 5 μg of CPMV (in 0.1 M bicarbonate buffer, pH 8.6) was coated into each well of a Nunc Maxisorp™ flat-bottom 96-well plate and incubated overnight at 4° C. 2% (w/v) BSA was also coated to serve as negative control. Next day, the plate was blocked with 2% (w/v) BSA and incubated at rt with shaking at 800 rpm for 1 h. Subsequently, the plate was washed thrice with 0.1% TBST for 1 min. 100 μL of amplified phage from the last biopanning cycle was added into each well followed by incubation at rt with shaking at 800 rpm for 1 h. Later, the plate was washed thrice with 0.5% TBST for 5 min. 100 μL of 1:500 dilution of HRP-conjugated anti-M monoclonal antibody (Abcam ab50370) was added and incubated at rt for 1 h with shaking at 8 rpm. The plate was again washed thrice with 0.5% TBST for 5 min followed by adding 100 μL of tetramethylbenzidine (TMB) substrate (Thermo Scientific Pierce) into each well. The plate was incubated at dark for 10 min and the absorbance was measured at 370 nm using an Infinite 200 Rx plate reader (Tecan Life Sciences) with 25 flashes in 96-well flat-bottom plate mode. Monoclonal phages with at least 0.3 difference in absorbance value between CPMV and BSA were subjected for DNA sequencing (Eurofins Genomics).
Competitive ELISA was performed as mentioned in ‘Monoclonal ELISA’ with modifications. Two-fold serial dilutions of CPMV peptide (0.500 μg, 0.250 μg, 0.125 μg, 0.063 μg, 0.031 μg, 0.016 μg, 0.008 μg, 0.004 μg, 0.002 μg) were added separately into the well together with 10^9 pfu of monoclonal phages. The reaction after incubation with TMB substrate was stopped with 50 μL of 2 N H2SO4. Colorimetric detection was carried out by measurement at 450 nm using an Infinite 200 Rx plate reader (Tecan Life Sciences) with 25 flashes in 96-well flat-bottom plate mode.
To determine the dissociation constant KD, competition binding ELISAs were set up. Here binding of synthetic CBPs (used in a dilution series) to CPMV was competed against MPSEF (used as constant amount). Phage MPSEF was detected by HRP-conjugated anti-M13 monoclonal antibody and measured at OD450 nm. CPMV bound MPSEF (OD450 nm) is inversely proportionate to the amount of peptide loaded for competition. The amount of MPSEF binding to CPMV reduced with the increasing amount of synthetic peptides, subsequently yielded lower absorbance value (FIG. 4G and FIG. 4H). […] Different modes of peptide modification resulted different IC50 and KD values despite having the exact same sequence.

[3] = tested on: CPMV coat proteins (S and L protein); assay: Modified western blot of CBP-biotin on denatured CPMV coat proteins; assay type: binding, Cowpea mosaic virus; details: denatured S and L protein on nitrocellulose, streptavidin HRP (FIG. 3C)
Experimental: 10 μg of CPMV was loaded onto a NuPage™ 12% bis-tris gel (Thermo Fisher Scientific) and electrophoresed for 40 min at 200 V. Proteins were then blotted onto Amersham Protran 0.45 Nitrocellulose membrane (GE Healthcare) at 25 V for 2 h. The membrane was then blocked with 5% (w/v) BSA for 1 h at rt with gentle shaking. Subsequently, the membrane was washed thrice with 0.5% TBST for 1 min. 1 μg/mL of CPMV-biotin peptide was added to the membrane for 1 h incubation at rt. The membrane was then washed with 0.5% TBST for min. 100 μL of 1:500 dilution of HRP-conjugated anti-streptavidin monoclonal antibody (Abcam ab7403) was added and incubated at rt for 1 h. Following three washes with 0.5% TBST, the membrane was developed with DAB substrate kit, peroxidase HRP (Vector Laboratories) for 5-10 min. The DAB reagent was drained off and the bands were documented with ProteinSimple FluorChem®.

CPMV [4] = assay: Peptide ELISA of CBP-biotin on streptavidin plate; assay type: binding, Cowpea mosaic virus; details: 5 μg CPMV, vs. control without CPMV, p<0.0001 (FIG. 4E)
Experimental: The plate was blocked with 2% (w/v) BSA followed by three washings with 0.1% TBST for 1 min per wash. 5 μg of CPMV was added for binding and incubated for 1 h at rt with shaking at 8 rpm. Then the plate was washed thrice with 0.5% TBST for 5 min each wash. 100 μL of anti-CPMV rabbit polyclonal antibodies (1:500 dilution) was added to the wells followed by incubation at rt for 1 h with shaking at 800 rpm. Following three washing steps using 0.5% TBST for 5 min, 100 μL of HRP conjugated goat anti-rabbit antibodies (1:5000 dilution; Pacific Immunology) was added to the wells and incubated at rt for 1 h with shaking at 800 rpm. Finally, the plate was washed thrice with 0.5% TBST followed by adding 100 μL of TMB substrate (Thermo Scientific Pierce) into each well. The plate was incubated in the dark for 5-10 min and the reaction was stopped with 50 μL of 2N H2SO4. Absorbance was measured at 450 nm using an Infinite 200 Rx plate reader (Tecan Life Sciences) with 25 flashes in 96-well flat-bottom plate mode.
Next, Applicant performed a series of enzyme-linked immunosorbent assays (ELISAs) using the CBP-FITC and CBP-biotin to further probe their binding affinity to CPMV. CBP-biotin was coated onto a streptavidin-functionalized plate, this was followed by incubation with CPMV (CPMV was omitted for the control) (FIG. 4E). […]

p185HER2/neu = p185HER2/neu (Homo sapiens, UniProt P04626); details: binding to p185HER2/neu; cited from earlier work
[5] = molecular target: T1, Cowpea mosaic virus (CPMV) (Cowpea mosaic virus), P03599; assay: competitive ELISA against MPSEF phage (10^9 pfu) on coated CPMV
T1 chain 1: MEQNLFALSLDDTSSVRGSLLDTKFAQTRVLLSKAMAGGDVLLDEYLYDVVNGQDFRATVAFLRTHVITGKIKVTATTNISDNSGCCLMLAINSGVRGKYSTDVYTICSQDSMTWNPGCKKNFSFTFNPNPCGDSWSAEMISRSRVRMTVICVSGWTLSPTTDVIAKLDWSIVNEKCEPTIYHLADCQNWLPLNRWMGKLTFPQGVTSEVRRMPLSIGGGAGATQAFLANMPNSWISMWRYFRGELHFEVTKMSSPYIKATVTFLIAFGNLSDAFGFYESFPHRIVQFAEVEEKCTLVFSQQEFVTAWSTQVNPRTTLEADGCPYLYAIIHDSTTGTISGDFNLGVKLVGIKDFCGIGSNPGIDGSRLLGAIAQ
T1 chain 2: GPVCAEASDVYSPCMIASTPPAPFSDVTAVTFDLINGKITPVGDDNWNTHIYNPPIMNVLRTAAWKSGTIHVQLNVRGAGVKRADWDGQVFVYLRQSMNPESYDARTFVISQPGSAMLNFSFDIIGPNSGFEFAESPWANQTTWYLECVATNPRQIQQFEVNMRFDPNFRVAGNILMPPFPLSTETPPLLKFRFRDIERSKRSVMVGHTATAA

[6] = molecular target: T1, Cowpea mosaic virus (CPMV) (Cowpea …); assay: from competition binding ELISA against MPSEF phage on coated CPMV
[7] = molecular target: T1, Cowpea mosaic virus (CPMV) (Cowpea …); assay: UV/visible spectroscopy of the purified complex (500-molar excess of peptide)
[8] = peptide dilution series competed against constant MPSEF phage for CPMV, OD450 nm

With “N-GWRVSEF-KKKKKKKKDDDD-FCDGFYACYMDVK/FITC/-C (GWRVSEFKKKKKKKKDDDDFCDGFYACYMDVK; not fully specified (C-terminus, bridges); cysteine pairing not given here; also: FITC label at C-terminal Lys) [CBP-AHNP, dual functional peptide, AHNP fused to the C-terminus of the CBP domain, FITC label]” the “labeling of CPMV seen by native agarose gel electrophoresis (FITC signal with RNA and protein band)” value (CPMV [1]) was “successful labeling”.

With `CC(C)[C@H](NC(=O)[C@H](CCCNC(=N)N)NC(=O)[C@H](Cc1c[nH]c2ccccc12)NC(=O)CN)C(=O)N[C@@H](CO)C(=O)N[C@@H](CCC(=O)O)C(=O)N[C@@H](Cc1ccccc1)C(=O)NCC(=O)NCC(=O)NCC(=O)N[C@@H](CO)C(=O)N[C@@H](CCCCNC(=S)Nc1ccc2c(c1)C(=O)OC21c2ccc(O)cc2Oc2cc(O)ccc21)C(=O)O` [CBP-FITC] (H-GWRVSEFGGGSK(FITC)-OH; N-terminus and C-terminus assumed) the Kd (CPMV [2]) was about 700 nM and the “half maximal inhibition concentration (IC50)” value (CPMV [2]; [8]) was 0.56 µg.

With `CC(C)[C@H](NC(=O)[C@H](CCCNC(=N)N)NC(=O)[C@H](Cc1c[nH]c2ccccc12)NC(=O)CN)C(=O)N[C@@H](CO)C(=O)N[C@@H](CCC(=O)O)C(=O)N[C@@H](Cc1ccccc1)C(=O)NCC(=O)NCC(=O)NCC(=O)N[C@@H](CO)C(=O)N[C@@H](CCCCNC(=O)CCCC[C@@H]1SC[C@@H]2NC(=O)N[C@@H]21)C(=O)O` [CBP-biotin] (H-GWRVSEFGGGSK(Biotin)-OH; N-terminus and C-terminus assumed) the Kd (CPMV [2]) was about 7 nM, the “half maximal inhibition concentration (IC50)” value (CPMV [2]; [8]) was 0.17 µg and the IC50 (CPMV [2]; peptide dilution series competed against constant MPSEF phage for CPMV, OD450 nm, read-out: half maximal inhibition concentration (IC50)) was 1140 nM. The “binding to CPMV coat proteins in western blot” value [3] was “bound to the CPMV coat proteins” and the “CPMV binding in ELISA” value (CPMV [4]) was “consistent with CPMV binding”.

In the case of “N-KKKKKKKKDDDD-FCDGFYACYMDVK/FITC/-C (KKKKKKKKDDDDFCDGFYACYMDVK; not fully specified (C-terminus, bridges); cysteine pairing not given here; also: FITC label at C-terminal Lys) [*AHNP, control peptide without the CBP domain, FITC label at C terminus, reference compound]”, the “labeling of CPMV seen by native agarose gel electrophoresis (FITC signal with RNA and protein band)” value (CPMV [1]) is reported as “no non-specific interaction”.

In the case of “FCDGFYACYMDV [AHNP, cyclic peptide derived from monoclonal antibody trastuzumab, HER2 ligand]”, the Kd (p185HER2/neu) is listed as 300 nM.

With GWRVSEFGGGSK-biotin (not fully specified (residue 12)) [CBP-biotin (N-…/biotin/-C)] the IC50 [5] was 1140 nM and the Kd [6] was 7 nM.

For GWRVSEFGGGSK-{FITC′} (not fully specified (residue 12)) [CBP-FITC (N-…/FITC/-C)], the IC50 [5] was 3340 nM, the Kd [6] was 700 nM and the CBP-FITC peptides per CPMV particle (peptides per CPMV particle) [7] was 6.
